Laboratory results taken from publication PMC6562952, “Experimental and Computational Study to Reveal the Potential of Non-Polar Constituents from Hizikia fusiformis as Dual Protein Tyrosine Phosphatase 1B and α-Glucosidase Inhibitors” (Marine Drugs, 2019).
Like-named read-outs stand apart in the source and are kept apart here.

Experiments:
[1] = target: Yeast α-glucosidase; assay: In vitro α-glucosidase inhibitory activity assay; assay type: biochemical; conditions: for IC50: mean ± SD of triplicate experiments; for α-glucosidase inhibitory activity (in words): under the tested concentration
Experimental: Enzyme inhibition studies were carried out spectrophotometrically in a 96-well micro-plate reader using a procedure reported by Li et al..

[2] = target: T1, PTP1B (Homo sapiens, UniProt P18031); assay: Enzyme kinetic analysis towards PTP1B (Lineweaver-Burk plot and secondary plots); assay type: biochemical
T1 sequence (P18031 1-322): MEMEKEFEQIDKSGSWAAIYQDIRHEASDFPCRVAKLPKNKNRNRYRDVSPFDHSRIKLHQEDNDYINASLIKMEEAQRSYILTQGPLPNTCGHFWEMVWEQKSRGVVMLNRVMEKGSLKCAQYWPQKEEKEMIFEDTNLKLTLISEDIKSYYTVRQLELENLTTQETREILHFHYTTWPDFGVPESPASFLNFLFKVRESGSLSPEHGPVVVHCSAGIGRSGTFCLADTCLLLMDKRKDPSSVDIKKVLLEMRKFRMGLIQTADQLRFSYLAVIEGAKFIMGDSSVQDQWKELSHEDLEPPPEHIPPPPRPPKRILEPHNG
Experimental: The inhibition constant (Ki) and inhibition mode for the inhibition of PTP1B was calculated by the Lineweaver-Burk plot and its secondary plot of the slope and the y-intercept of compounds [49, 50]. […] Graphs were generated using SigmaPlot 12.0 (Systat Software Inc., San Jose, CA, USA).

[3] = target: T2, truncated form of human recombinant PTP1B (amino acid 1-322) (Homo sapiens, UniProt P18031); assay: In vitro PTP1B inhibitory activity assay (pNPP substrate); conditions: for IC50: mean ± SD of triplicate experiments, pNPP substrate
T2 sequence (P18031 1-322): T1 sequence (P18031 1-322)
Experimental: A truncated form of human recombinant PTP1B (amino acid 1-322) was purchased from Enzo Life Sciences (Farmingdale, NY, USA) and dithiothreitol (DTT) was purchased from Bio-Rad Laboratories (Hercules, CA, USA). All other chemicals and solvents were purchased from E. Merck, Fluka, and Sigma-Aldrich, unless otherwise stated.
The inhibitory activity of isolated compounds against truncated form of human recombinant PTP1B was evaluated using pNPP as a substrate [48]. The amount of p-nitrophenyl produced after enzymatic dephosphorylation of pNPP was estimated by measuring the absorbance at 405 nm using a micro-plate spectrophotometer (Molecular Devices, Sunnyvale, CA, USA).

[4] = tested on: streptozotocin-induced Sprague-Dawley rats; conditions: fucosterol from Pelvetia siliquosa; cited from earlier work
[5] = tested on: insulin-resistant HepG2 cells; conditions: cited from earlier work
[6] = tested on: PTP1B; conditions: in vitro; cited from earlier work

| Compound | IC50 [1] [µM] | IC50 ([3]; IC50 PTP1B) [µM] | other results |
| --- | --- | --- | --- |
| CC(C)C1(CC[C@@H](C)[C@H]2CCC3C4CC=C5C[C@@H](O)CC[C@]5(C)C4CC[C@@]32C)OC1C (mixture of isomers) [Compound 6, 24R,28R and 24S,28R-epoxy-24-ethylcholesterol] | > 150 | 16.7 ± 0.36 | Enzyme Kinetics Inhibition Type (PTP1B) [2]: Non-competitive; times stronger PTP1B inhibitory activity than 5 ([3]; ratio of IC50 versus fucosterol (5)): 3 times |
| CCC/C=C\CCCCCCCCCCC(=O)O [Compound 1, (Z)-hexadec-12-enoic acid] | 48.1 ± 3.37 | 6.59 ± 0.09 | – |
| CCCCCCCCCCCCCCCC(=O)O [Compound 2, palmitic acid] | 93.6 ± 3.68 | 49.4 ± 1.39 | – |
| CCCCCCCC/C=C\CCCCCCCC(=O)O [Compound 3, (Z)-octaec-9-enoic acid] | 113 ± 2.47 | 13.7 ± 0.49 | – |
| C=CC(O)(CCC(C)C1CCC2C3CC=C4CC(O)CCC4(C)C3CCC12C)C(C)C (stereo not drawn) [Compound 4, 24R and 24S-saringosterol] | > 150 | > 150 | PTP1B inhibitory activity (in words) ([3]; under the tested concentration): no activity |
| C/C=C(\CC[C@@H](C)[C@H]1CC[C@H]2[C@@H]3CC=C4C[C@@H](O)CC[C@]4(C)[C@H]3CC[C@]12C)C(C)C [Compound 5, fucosterol] | > 150 | 50.6 ± 1.86 | Enzyme Kinetics Inhibition Type (PTP1B) [2]: non-competitive; anti-diabetic activity [4]: anti-diabetic activity; effect on insulin resistance [5]: improved insulin resistance; PTP1B inhibition type (literature) [6]: non-competitive |
| CC/C=C\C/C=C\C/C=C\CCCCCCC(=O)O [Compound 7, (8Z,11Z,14Z)-heptadeca-8,11,14-trienoic acid] | > 200 | 4.86 ± 1.36 | – |
| CCCC/C=C\C/C=C\C/C=C\CCCCCC(=O)O [Compound 8, (7Z,10Z,13Z)-octadeca-7,10,13-trienoic acid] | 112 ± 1.44 | 13.58 ± 0.1 | – |
| CCCCCC\C=C/C=C\C=C/C=C\CCCCCC(=O)O [Compound 9, (7Z,9Z,11Z,13Z)-icosa-7,9,11,13-tetraenoic acid] | 34.9 ± 2.39 | 10.7 ± 0.17 | – |
| CC/C=C\C/C=C\C/C=C\C/C=C\CCCCC(=O)O [Compound 10, (6Z,9Z,12Z,15Z)-octadeca-6,9,12,15-tetraenoic acid] | > 200 | 16.43 ± 0.07 | – |
| CC/C=C\C/C=C\C/C=C\CCCCCCC(=O)O [Compound 12, (8Z,11Z,14Z)-heptadeca-8,11,14-trienoic acid] | 43.9 ± 0.77 | 11.5 ± 0.52 | – |
| CC(=O)C=C=C1C(C)(C)CC(OC(C)=O)CC1(C)O [Compound 20, (3R)-4-[(2R,4S)-4-acetoxy-2-hydroxy-2,6,6-trimethylcyclohexylidene]but-3-en-2-one] | > 250 | 323.2 ± 0.84 | – |

More lines, main results first:

| IC50 [1] [µM] | IC50 ([3]; IC50 PTP1B) [µM] | Compound | other results |
| --- | --- | --- | --- |
| > 150 | 4.92 ± 0.01 | C=C(COC(=O)CCCCCC(=O)OCC(O)COC(=O)CCC/C=C\C/C=C\C/C=C\CCCCCCCC)C(=O)O (stereo not drawn) [Compound 13, 2-(7′-(2″-hydroxy-3″-((5Z,8Z,11Z)-icosatrienoyloxy)propoxy)-7′-oxoheptanoyl)oxymethylpropenoic acid] | Enzyme Kinetics Inhibition Type (PTP1B) [2]: Non-competitive |
| 134 ± 3.86 | 174 ± 5.44 | COc1cc([C@H]2Oc3c(O)cc(CCCO)cc3[C@@H]2CO)ccc1O [Compound 14, cedrusin] | – |
| > 250 | > 400 | COc1cc(C(O)C(CO)Oc2ccc(CCCO)cc2O)ccc1O (stereo not drawn) [Compound 15, 1-(4-hydroxy-3-methoxyphenyl)-2-[2-hydroxy-4-(3-hydroxypropyl)phenoxy]-1,3-propanediol] | – |
| > 250 | > 400 | OCC1OC(OCc2ccccc2)C(O)C(O)C1O (stereo not drawn) [Compound 16, benzyl alcohol alloside] | – |
| > 300 | – | CC1(C)CC2CC(C)(O2)/C1=C/C(=O)O (stereo not drawn) [Compound 17, madhusic acid A] | IC50 ([3]; read-out: IC50 PTP1B): > 400 µM |
| > 150 | 110.3 ± 0.39 | CC1(C)[C@@H](O[C@H]2O[C@H](C(=O)O)[C@@H](O)[C@H](O)[C@H]2O[C@@H]2O[C@H](C(=O)O)[C@@H](O)[C@H](O)[C@H]2O)CC[C@]2(C)[C@H]3C(=O)C=C4[C@@H]5C[C@@](C)(C(=O)O)CC[C@]5(C)CC[C@@]4(C)[C@]3(C)CC[C@@H]12 [Compound 18, 18β-glycyrrhetinic acid-3-O-β-D-glucuronopyranosyl-1(→2)-β-D-glucuronide] | α-glucosidase inhibitory activity (in words) [1]: no activity |
| > 150 | – | COC(=O)C1OC(OC2CCC3(C)C(CCC4(C)C3C(=O)C=C3C5CC(C)(C(=O)O)CCC5(C)CCC34C)C2(C)C)C(OC2OC(C(=O)O)C(O)C(O)C2O)C(O)C1O [Compound 19, 18β-glycyrrhetinic acid-3-O-β-D-glucuronopyranosyl-1(→2)-β-D-glucuronide-6’-methyl ester] | α-glucosidase inhibitory activity (in words) [1]: no activity; times stronger PTP1B inhibition than compound 18 ([3]; ratio of IC50 versus glycyrrhizin (18)): 2.2 times |
| 273 ± 5.65 | 188 ± 3.21 | NCCc1ccc(O)cc1 [Compound 21, tyramine] | – |
| 113.3 ± 0.7 | – | CC1(C)[C@@H](O)CC[C@]2(C)[C@H]3C(=O)C=C4[C@H]5C[C@@](C)(C(=O)O)CC[C@]5(C)CC[C@@]4(C)[C@]3(C)CC[C@@H]12 [Compound 22, 18α-glycyrrhetinic acid] | Enzyme Kinetics Inhibition Type (PTP1B) [2]: Competitive |
| 129 ± 3.88 | – | CC1(C)C2CC[C@]3(C)[C@H](C(=O)C=C4[C@@H]5C[C@@](C)(C(=O)O)CC[C@]5(C)CC[C@]43C)[C@@]2(C)CC[C@@H]1O (stereo partly drawn) [Compound 23, 18β-glycyrrhetinic acid] | Enzyme Kinetics Inhibition Type (PTP1B) [2]: Competitive |
